Several values for one entry are separate records, joined by “and”; a condition that tells them apart may be missing. Equal entries are not always repeated.
Columns and labels:
[1] = Cell viability (MTT assay) of HepaRG cells with and without transporter inhibitors; type: cell-based, human; conditions: human, HepaRG cells, HepaRG, no PA, inhibitor alone 24 h: CsA 10 µM, Ko143 5 µM, MK571 50 µM, Qu 100 µM, TEA 3 mM; read-out: Cell viability (MTT), percent of solvent control, Mean [%]
Protocol: (§1) In the case of TEA, cells were pre-incubated 24 h prior to PA treatment. The inhibitors were applied anew at PA incubation.
To analyze the cytotoxic effects of PAs on HepaRG cells with non-inhibited and inhibited hepatic transporters, the cells were seeded at a density of 9000 cells per well in the inner 60 wells of a 96-well plate and cultivated as described in Section 4.2. After four weeks of cultivation, FBS concentration in the cell culture medium was reduced to 2% for 48 h prior incubation. Thereby, inhibitory effects of peptide growth factors from the FBS on xenobiotic-metabolizing enzymes were minimized. […] The cells were pre-incubated with pharmacological inhibitors as described in Section 4.3. […] Cell viability was analyzed via the MTT test. 10 µl MTT reagent (5 mg/mL MTT dissolved in phosphate-buffered saline, PBS) was added per well and incubated for 1 h at 37 °C. The supernatant was discarded, and the violet formazan crystals dissolved in 130 µL desorption solution (0.7% sodium dodecyl sulfate in propan-2-ol). After shaking for 20 min (under protection from light), absorbance was measured on a TecanM200Pro spectrometer (Tecan Group Ltd., Männedorf, Switzerland) at a wavelength of 570 nm, along with a reference wavelength of 630 nm.

[2] = target: T1, SLC22A1 (Homo sapiens, UniProt O15245); experiment: ASP+ (SLC22A1 substrate) uptake measurement in HepaRG cells; type: cell-based; conditions: for fluorescence [%], MW [%]: solv ctrl = 100
T1 construct: For measuring the uptake of ASP^+ in HepaRG cells incubated with PAs; endogenous in cells; host or cells: differentiated HepaRG cells (human hepatoma)
T1 sequence (O15245 1-554): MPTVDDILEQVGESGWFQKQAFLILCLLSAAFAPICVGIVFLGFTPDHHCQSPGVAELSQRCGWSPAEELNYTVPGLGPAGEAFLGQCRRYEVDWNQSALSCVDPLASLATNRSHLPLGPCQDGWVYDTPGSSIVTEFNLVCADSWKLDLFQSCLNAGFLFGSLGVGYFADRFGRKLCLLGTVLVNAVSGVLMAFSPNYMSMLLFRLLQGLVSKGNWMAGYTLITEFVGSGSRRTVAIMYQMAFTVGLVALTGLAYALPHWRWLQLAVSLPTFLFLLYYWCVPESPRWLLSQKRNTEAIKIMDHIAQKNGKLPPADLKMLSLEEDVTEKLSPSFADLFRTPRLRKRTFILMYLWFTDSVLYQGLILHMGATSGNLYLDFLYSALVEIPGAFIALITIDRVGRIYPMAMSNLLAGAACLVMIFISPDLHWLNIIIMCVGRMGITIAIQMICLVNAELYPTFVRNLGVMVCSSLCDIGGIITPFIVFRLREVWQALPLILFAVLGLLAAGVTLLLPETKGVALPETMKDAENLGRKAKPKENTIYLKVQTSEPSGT
Protocol: ASP^+ is an organic cationic mitochondrial dye that only fluoresces inside cells so that fluorescence measured in the cell culture medium can be neglected. […] In parallel, cells were incubated with Qu (100 µM) and TEA (3 mM) as mentioned in Section 4.3. After 24 h, cells were incubated with 1 µM ASP^+ in Hanks’ balanced salt solution (HBSS, Sigma-Aldrich, Taufkirchen, Germany) at 37 °C. Fluorescence was measured after 20 min at ASP^+-specific wavelength (λex = 475 nm and λem = 605 nm) on a TecanM200Pro spectrometer (Tecan Group Ltd., Männedorf, Switzerland) according to Ahlin et al., (2008).

[3] = system: HepaRG cells; experiment: PA and PANO content in cell culture medium of HepaRG cells upon pharmacological transporter inhibition (LC-MS/MS); type: in vitro ADME, human; conditions: HepaRG, 2.5 µM PA, 4, 8, 24 h; CsA 10 µM, Ko143 5 µM, MK-571 50 µM, Qu 100 µM, TEA 3 mM
Protocol: as §1
(§2) In order to measure time-dependent depletion of PA and PANO content in cell culture medium, cells were seeded at a density of 0.2 × 10^6 cells per well in a 6-well plate and cultivated as described in Section 4.2. After four weeks of cultivation, cells were adapted to serum-free medium and medium substituted with insulin, transferrin, selenium (ITS) serum extender (Capricorn Scientific, Ebsdorfergrund, Germany) 48 h prior to PA incubation for optimal LC-MS/MS measurements. […] Samples were taken after 2 h, 4 h, 8 h and 24 h.
(§3) Briefly, chromatographic separation of PA/PANO analytes was achieved on a 50 × 2.1 mm Kinetex ™ 2.6 μm CoreShell EVO C18 100 Å column protected by a SecurityGuard ™ ULTRA EVO C 18 2.1 mm guard column (both Phenomenex, Aschaffenburg, Germany) at a flow rate of 0.4 mL/min on a Shimadzu high performance liquid chromatography (HPLC) apparatus (LC-20AB, SIL-20AC HT, CTO-20AC, CBM-20A, Duisburg, Germany) coupled to an API4000 triple quadrupole MS (Sciex, Darmstadt, Germany). The following MS parameters were used for measurements in positive electrospray ionisation (ESI+) mode: ionisation voltage 2500 V, nebuliser gas 50 psi, heating gas 50 psi, curtain gas 30 psi, temperature 600 °C, collision gas level 7. The substance specific parameters are summarized in Kaltner et al. 2019 [79].

[4] = system: HepaRG cells; experiment: Time-dependent PA depletion and PANO formation in cell culture medium of HepaRG cells at 37 °C and 4 °C (LC-MS/MS); conditions: for PA content in cell culture medium, Mean [%]: 700 nM PA; for PA content in cell culture medium, Mean [%] / PANO content in cell culture medium, Mean [%]: percent of initial PA concentration; for PANO content in cell culture medium, Mean [%]: 700 nM parent PA
Protocol: as §2, §3

## C=C[C@H]1C[N@@]2CC[C@H]1C[C@@H]2[C@@H](O)c1ccnc2ccc(OC)cc12 [Qu, quinidine]
[1]
  viability at 24 h: 87.2%
[2]; 100 µM
  fluorescence [%], MW [%]: 82.7588%
[2]; HepaRG, 24 h, Qu 100 µM, TEA 3 mM, 1 µM ASP+
  reduction of ASP+ (SLC22A1 substrate) uptake: 18%
[3]
  effect of inhibitor on retrorsine and senecionine uptake and PANO formation: striking effect on both retrorsine and senecionine uptake at all time points

## intermedine
[4]; HepaRG, 4 °C (cold), 0h
  PA content in cell culture medium, Mean [%]: 107.988%
  PANO content in cell culture medium, Mean [%]: 0%
[4]; HepaRG, 4 °C (cold), 2h
  PA content in cell culture medium, Mean [%]: 103.883%
  PANO content in cell culture medium, Mean [%]: 0.06406%
[4]; HepaRG, 4 °C (cold), 4h
  PA content in cell culture medium, Mean [%]: 102.163%
  PANO content in cell culture medium, Mean [%]: 0.04788%
[4]; HepaRG, 4 °C (cold), 8h
  PA content in cell culture medium, Mean [%]: 103.746%
  PANO content in cell culture medium, Mean [%]: 0.07456%
[4]; HepaRG, 4 °C (cold), 24h
  PA content in cell culture medium, Mean [%]: 100.748%
  PANO content in cell culture medium, Mean [%]: 0.022%
[4]; HepaRG, 37 °C (warm), 0h
  PA content in cell culture medium, Mean [%]: 108.544%
  PANO content in cell culture medium, Mean [%]: 0%
[4]; HepaRG, 37 °C (warm), 2h
  PA content in cell culture medium, Mean [%]: 103.044%
  PANO content in cell culture medium, Mean [%]: 0.04194%
[4]; HepaRG, 37 °C (warm), 4h
  PA content in cell culture medium, Mean [%]: 97.3218%
  PANO content in cell culture medium, Mean [%]: 0.01862%
[4]; HepaRG, 37 °C (warm), 8h
  PA content in cell culture medium, Mean [%]: 97.4673%
  PANO content in cell culture medium, Mean [%]: 0.0065%
[4]; HepaRG, 37 °C (warm), 24h
  PA content in cell culture medium, Mean [%]: 100.568%
  PANO content in cell culture medium, Mean [%]: 0.0275%
[4]; HepaRG, 37 °C, after 24 h, 700 nM
  reduction of PA content in the supernatant: only little reduction
[4]; cold, 0h
  PA in medium, Mean [%]: 100%
  PA in medium, single replicates (repl.): 100%
  PANO in medium, Mean [%]: 0%
  PANO in medium, single replicates (repl.): 0%
[4]; cold, 2h
  PA in medium, Mean [%]: 96.2366%
  PA in medium, single replicates (repl.): 96.0144% and 91.6565% and 102.06% and 95.215%
  PANO in medium, Mean [%]: 0.05112%
  PANO in medium, single replicates (repl.): 0.03% and 0.05295% and 0.03688% and 0.08463%
[4]; cold, 4h
  PA in medium, Mean [%]: 94.7318%
  PA in medium, single replicates (repl.): 93.7752% and 93.3154% and 101.161% and 90.6753%
  PANO in medium, Mean [%]: 0.03748%
  PANO in medium, single replicates (repl.): 0.02966% and 0.02637% and 0% and 0.09388%
[4]; cold, 8h
  PA in medium, Mean [%]: 96.1713%
  PA in medium, single replicates (repl.): 95.8013% and 89.4137% and 105.78% and 93.6906%
  PANO in medium, Mean [%]: 0.05989%
  PANO in medium, single replicates (repl.): 0.03944% and 0.1014% and 0% and 0.09868%
[4]; cold, 24h
  PA in medium, Mean [%]: 93.3405%
  PA in medium, single replicates (repl.): 92.0698% and 90.9944% and 99.8071% and 90.4909%
  PANO in medium, Mean [%]: 0.01524%
  PANO in medium, single replicates (repl.): 0.001348% and 0% (2×) and 0.05962%
[4]; warm, 0h
  PA in medium, Mean [%]: 100%
  PA in medium, single replicates (repl.): 100%
  PANO in medium, Mean [%]: 0%
  PANO in medium, single replicates (repl.): 0%
[4]; warm, 2h
  PA in medium, Mean [%]: 94.9033%
  PA in medium, single replicates (repl.): 93.3617% and 94.7726% and 98.2992% and 93.1796%
  PANO in medium, Mean [%]: 0.03999%
  PANO in medium, single replicates (repl.): 0.003057% and 0.04704% and 0.1099% and 0%
[4]; warm, 4h
  PA in medium, Mean [%]: 89.9787%
  PA in medium, single replicates (repl.): 93.5042% and 95.5972% and 80.8797% and 89.9336%
  PANO in medium, Mean [%]: 0.01797%
  PANO in medium, single replicates (repl.): 0% (2×) and 0.07092% and 0.000941%
[4]; warm, 8h
  PA in medium, Mean [%]: 90.1345%
  PA in medium, single replicates (repl.): 94.7528% and 91.6017% and 83.3876% and 90.7959%
  PANO in medium, Mean [%]: 0.006117%
  PANO in medium, single replicates (repl.): 0% (3×) and 0.02447%
[4]; warm, 24h
  PA in medium, Mean [%]: 92.1206%
  PA in medium, single replicates (repl.): 92.1111% and 85.5289% and 89.7263% and 101.116%
  PANO in medium, Mean [%]: 0.02621%
  PANO in medium, single replicates (repl.): 0% (2×) and 0.05428% and 0.05058%

## retrorsine
[2]; 1 µM
  fluorescence [%], MW [%]: 89.2606%
[2]; 10 µM
  fluorescence [%], MW [%]: 46.6068%
[2]; 50 µM
  fluorescence [%], MW [%]: 25.7608%
[2]; 100 µM
  fluorescence [%], MW [%]: 25.133%
[2]; 250 µM
  fluorescence [%], MW [%]: 21.5057%
[2]; HepaRG
  interaction with SLC22A1: both inhibitors and substrates
[2]; HepaRG, 24 h
  minimum concentration inhibiting uptake of the SLC22A1-specific substrate ASP+: 10 µM
